Data taken from patent publication US7300946B2, “N-(substituted arylmethyl)-4-(disubstituted methyl) piperidines and pyridines” (Bayer CropScience AG, priority 2002, dated 2007).

System: tobacco budworm (Heliothis virescens [Fabricius])
Experiment: surface-treated diet test against the tobacco budworm
Type: in vivo
Conditions: tobacco budworm second instar larvae, 0.25 millimoles of candidate insecticide on the surface of the diet, five-day exposure; for Percent Mortality: compared to total number of insects infested; for Percent Growth Inhibition: inhibition of insect weight relative to untreated controls
Procedure, shortened: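 Wheat germ artificial diet surface-treated with 40 µL of 50 mM DMSO stock diluted 1:7 in 1:1 water/acetone (0.25 millimolar on diet), or sub-multiples for rate tests. One second-instar larva per well, 25° C, 60% RH, 5 days; percent weight inhibition vs DMSO controls and percent mortality.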

Row | SMILES | Percent Mortality (surface-treated diet) [%] | Percent Growth Inhibition (surface-treated diet) [%] | Percent Mortality [%] | Percent Growth Inhibition [%]
1 | CCn1nnc(-c2ccc(CN3CCC(C(OC(=O)Nc4ccc(Cl)cc4)c4ccccc4)CC3)cc2)n1 (stereo not drawn) [Compound 564] | 100 | 100 |  | 
2 | Cc1ccc(C(=O)NC(c2ccc(OC(F)(F)F)cc2)C2CCN(Cc3ccc(-c4nnn(C)n4)cc3)CC2)cc1 (stereo not drawn) [Compound 330] | 33 | 89 |  | 
3 | CCCOc1ccc(CN2CCC(C(OC(=O)Nc3ccc(F)cc3)c3cccc(C(F)(F)F)c3)CC2)cc1 (stereo not drawn) [Compound 486] | 100 | 100 |  | 
4 | CCON=Cc1ccc(CN2CCC(C(OC(=O)Nc3ccc(Cl)cc3)c3cc(Cl)cc(Cl)c3)CC2)cc1 (stereo not drawn) [Compound 532] | 100 | 100 |  | 
5 | Cn1nnc(-c2ccc(CN3CCC(C(NC(=O)Nc4ccc(Cl)cc4)c4ccc(OC(F)(F)F)cc4)CC3)cc2)n1 (stereo not drawn) [Compound 336] | 100 | 100 |  | 
6 | Cc1ccc(NC(=O)NC(c2ccc(OC(F)(F)F)cc2)C2CCN(Cc3ccc(-c4nnn(C)n4)cc3)CC2)cc1 (stereo not drawn) [Compound 342] | 100 | 100 |  | 
7 | O=C(Nc1cc(Cl)c(Cl)cc1Cl)OC(c1ccc(C(F)(F)F)cc1)C1CCN(Cc2ccc(Oc3ccccn3)cc2)CC1 (stereo not drawn) [Compound 234] | 100 | 100 |  | 
8 | N#Cc1ccc(Oc2ccc(CN3CCC(C(OC(=O)Nc4ccc(Cl)cc4)c4ccc(OC(F)(F)F)cc4)CC3)cc2)nc1 (stereo not drawn) [Compound 708] |  |  | 100 | 100
9 | CCn1nnc(-c2ccc(C[N+]3([O-])CCC(C(OC(=O)Nc4ccc(F)cc4)c4ccc(OC(F)(F)F)cc4)CC3)cc2)n1 (stereo not drawn) [Compound 401] | 100 | 100 |  | 
10 | O=C(Nc1cccc(F)c1)OC(c1cc(Cl)cc(Cl)c1)C1CCN(Cc2ccc(Oc3ncccn3)cc2)CC1 (stereo not drawn) [Compound 727] |  |  | 100 | 100
11 | Cn1nnc(-c2ccc(CN3CCC(C(NC(=O)Oc4cccc(Cl)c4)c4ccc(OC(F)(F)F)cc4)CC3)cc2)n1 (stereo not drawn) [Compound 348] | 100 | 100 |  | 
12 | FC(F)(F)c1ccc(C(=C2CCN(Cc3ccc(Oc4ccccc4)nc3)CC2)c2ccc(C(F)(F)F)cc2)cc1 [Compound 858] |  |  | 17 | 99
13 | CCn1nnc(-c2ccc(CN3CCC(C(OC(=O)Nc4ccc(Cl)c(Cl)c4)c4ccc(Cl)c(Cl)c4)CC3)cc2)n1 (stereo not drawn) [Compound 573] | 100 | 100 |  | 
14 | O=C(Nc1cc(F)cc(F)c1)OC(c1ccc(C(F)(F)F)cc1)C1CCN(Cc2ccc(O)cc2)CC1 (stereo not drawn) [Compound 464] | 0 | 63 |  | 
15 | COC(=O)Nc1ccc(CN2CCC(=C(c3ccc(C(F)(F)F)cc3)c3ccc(C(F)(F)F)cc3)CC2)cc1 [Compound 54] | 100 | 100 |  | 
16 | Cn1nnc(-c2ccc(CN3CCC(C(NCc4ccc(OC(F)(F)F)cc4)c4ccc(OC(F)(F)F)cc4)CC3)cc2)n1 (stereo not drawn) [Compound 319] | 100 | 100 |  | 
17 | O=C(Nc1cc(F)cc(F)c1)OC(c1ccc(C(F)(F)F)cc1)C1CCN(Cc2ccc(Oc3ccccc3F)cc2)CC1 (stereo not drawn) [Compound 547] | 100 | 100 |  | 
18 | O=C(Nc1cc(F)cc(F)c1)OC(c1ccc(C(F)(F)F)cc1)C1CCN(Cc2ccc(OCc3ccccc3)cc2)CC1 (stereo not drawn) [Compound 549] | 0 | 98 |  | 
19 | CNC(=O)Oc1ccc(CN2CCC(=C(c3ccc(C(F)(F)F)cc3)c3ccc(C(F)(F)F)cc3)CC2)cc1 [Compound 790] |  |  | 100 | 100
20 | CCCOC(=O)Nc1ccc(C[N+]2([O-])CCC(=C(c3ccc(C(F)(F)F)cc3)c3ccc(C(F)(F)F)cc3)CC2)cc1 (stereo not drawn) [Compound 102] | 100 | 100 |  | 
21 | CCON=Cc1ccc(CN2CCC(C(OC(=O)Nc3ccc(F)c(F)c3F)c3ccc(C(F)(F)F)cc3)CC2)cc1 (stereo not drawn) [Compound 201] | 100 | 100 |  | 
22 | Clc1ccc(C(=C2CCN(Cc3ccc(Oc4ncccn4)cc3)CC2)c2ccc(Cl)cc2)cc1 [Compound 812] |  |  | 100 | 100
23 | O=C(Nc1ccc(I)cc1)OC(c1ccc(C(F)(F)F)cc1)C1CCN(Cc2ccc(Oc3ccccn3)cc2)CC1 (stereo not drawn) [Compound 677] | 100 | 100 |  | 
24 | CON=Cc1ccc(CN2CCC(C(OC(=O)Nc3ccc(F)c(F)c3)c3ccc(OC(F)(F)F)cc3)CC2)cc1 (stereo not drawn) [Compound 194] | 100 | 100 |  | 

Row | SMILES | Percent Mortality (surface-treated diet) [%] | Percent Growth Inhibition (surface-treated diet) [%] | Percent Mortality [%] | Percent Growth Inhibition [%]
25 | CCn1nnc(-c2ccc(CN3CCC(C(OC(=O)Nc4cc(F)cc(F)c4)c4ccc(Oc5ccccc5)cc4)CC3)cc2)n1 (stereo not drawn) [Compound 619] | 17 | 100 |  | 
26 | Cn1nnc(-c2ccc(C[N+]3([O-])CCC(C(OC(=O)Nc4ccc(C(F)(F)F)cc4)c4ccc(OC(F)(F)F)cc4)CC3)cc2)n1 (stereo not drawn) [Compound 402] | 100 | 100 |  | 
27 | C#CCOC(=O)Nc1ccc(CN2CCC(=C(c3ccc(Cl)cc3)c3ccc(Cl)cc3)CC2)cc1 [Compound 801] |  |  | 100 | 100
28 | CCn1nnc(-c2ccc(CN3CCC(C(OC(=O)Nc4cc(F)cc(F)c4)c4ccc(F)c(F)c4)CC3)cc2)n1 (stereo not drawn) [Compound 589] | 100 | 100 |  | 
29 | CCn1nnc(-c2ccc(CN3CCC(C(OC(=O)Nc4cc(F)cc(C(F)(F)F)c4)c4ccccc4)CC3)cc2)n1 (stereo not drawn) [Compound 566] | 100 | 100 |  | 
30 | CC(C)OC(=O)Nc1ccc(C[N+]2([O-])CCC(=C(c3ccc(F)cc3)c3ccc(F)cc3)CC2)cc1 (stereo not drawn) [Compound 832] |  |  | 83 | 100
31 | FC(F)(F)c1ccc(C(=C2CCN(Cc3ccc(Oc4ncccn4)cc3)CC2)c2cccc(C(F)(F)F)c2)cc1 [Compound 822] |  |  | 100 | 100
32 | O=C(Nc1cc(F)cc(F)c1)OC(c1ccc(C(F)(F)F)cc1)C1CCN(Cc2ccc(Oc3ccccc3)cc2)CC1 (stereo not drawn) [Compound 546] | 100 | 100 |  | 
33 | CCn1nnc(-c2ccc(CN3CCC(C(OC(=S)Nc4ccc(C(F)(F)F)cc4)c4ccc(OC(F)(F)F)cc4)CC3)cc2)n1 (stereo not drawn) [Compound 302] | 100 | 100 |  | 
34 | CCCOc1ccc(CN2CCC(C(OC(=O)Nc3ccc(C(F)(F)F)cc3)c3cccc(C(F)(F)F)c3)CC2)cc1 (stereo not drawn) [Compound 489] | 100 | 100 |  | 
35 | O=C(Nc1ccc(F)cc1)OC(c1ccc(C(F)(F)F)cc1)C1CCN(Cc2ccc(-n3cccn3)cc2)CC1 (stereo not drawn) [Compound 555] | 33 | 100 |  | 
36 | COc1ccc(CNC(=O)OC(c2ccc(C(F)(F)F)cc2)C2CCN(Cc3ccc(Oc4ccccn4)cc3)CC2)cc1 (stereo not drawn) [Compound 698] | 100 | 100 |  | 
37 | CCON=Cc1ccc(CN2CCC(C(OC(=O)Nc3ccc(Cl)cc3)c3ccc(Cl)cc3Cl)CC2)cc1 (stereo not drawn) [Compound 529] | 100 | 100 |  | 
38 | Cn1nnc(-c2ccc(CN3CCC(C(NC(=O)Oc4ccc(F)cc4)c4ccc(OC(F)(F)F)cc4)CC3)cc2)n1 (stereo not drawn) [Compound 353] | 17 | 87 |  | 
39 | CCON=Cc1ccc(CN2CCC(C(OC(=O)Nc3cc(F)cc(F)c3)c3cc(Cl)cc(Cl)c3)CC2)cc1 (stereo not drawn) [Compound 534] | 100 | 100 |  | 
40 | CCCOc1ccc(CN2CCC(C(OC(=O)Nc3ccc(Cl)cc3)c3ccc(F)cc3)CC2)cc1 (stereo not drawn) [Compound 475] | 100 | 100 |  | 
41 | CC(C)OC(=O)Nc1ccc(CN2CCC(=C(c3ccc(Cl)c(Cl)c3)c3ccc(Cl)c(Cl)c3)CC2)cc1 [Compound 795] |  |  | 50 | 94
42 | CCn1nnc(-c2ccc(CN3CCC(=C(c4ccccc4)c4ccc(C(F)(F)F)cc4)CC3)cc2)n1 [Compound 80] | 33 | 100 |  | 
43 | Cn1nnc(-c2ccc(CN3CCC(C(NC(=O)c4ccc([N+](=O)[O-])cc4)c4ccc(OC(F)(F)F)cc4)CC3)cc2)n1 (stereo not drawn) [Compound 333] | 17 | 99 |  | 
44 | O=C(Nc1ccc(Cl)cc1)OC(c1ccc(C(F)(F)F)cc1)C1CCN(Cc2ccc(Oc3nsnc3Cl)cc2)CC1 (stereo not drawn) [Compound 561] | 50 | 100 |  | 
45 | CN(C(=O)OC(c1ccc(C(F)(F)F)cc1)C1CCN(Cc2ccc(Oc3ccccn3)cc2)CC1)c1ccccc1 (stereo not drawn) [Compound 658] | 0 | 100 |  | 
46 | O=C(Nc1cc(F)cc(F)c1)OC(c1ccc(C(F)(F)F)cc1)C1CC[N+]([O-])(Cc2ccc(Oc3ncccc3Cl)cc2)CC1 (stereo not drawn) [Compound 755] |  |  | 100 | 100
47 | Cn1nnc(-c2ccc(CN3CCC(C(NCc4ccc(Cl)cc4)c4ccc(OC(F)(F)F)cc4)CC3)cc2)n1 (stereo not drawn) [Compound 311] | 100 | 100 |  | 
48 | CCn1nnc(-c2ccc(CN3CCC(C(OC(=O)Nc4ccc(Br)cc4)c4ccc(OC(F)(F)F)cc4)CC3)cc2)n1 (stereo not drawn) [Compound 270] | 100 | 100 |  | 
